Data published in the supplement of paper PMC10307832.

Assays:
Assay in all cases: relative viability (nuclei count vs DMSO), 5 days (fraction); higher = more cells survive
XMD8-85 + OSI-027 = compound: CN1CCN(CC1)C2=CC(=C(C=C2)NC3=NC=C4C(=N3)N(C5=CC=CC=C5C(=O)N4C)C)OC [XMD8-85] + COc1cccc2cc(-c3nc([C@H]4CC[C@H](C(=O)O)CC4)n4ncnc(N)c34)[nH]c12 [OSI-027] (partner 0.5 µM)
Summary of the method: (§1)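 For relative viability, nuclei counts in treated wells were divided by those in vehicle wells. Lung cancer cell lines had been pin-tool dosed in 1536-well plates the day after seeding and cultured for 5 days, then fixed and stained in one step (final 0.05% Triton X-100, 1% formaldehyde, 1 ug/ml Hoechst) and imaged at 4×. Doses were one drug alone or a fixed anchor-drug dose plus five library-drug doses (not always all listed) in √10 steps, and values are duplicate-plate medians.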

XMD8-85 + Pictilisib = compound: CN1CCN(CC1)C2=CC(=C(C=C2)NC3=NC=C4C(=N3)N(C5=CC=CC=C5C(=O)N4C)C)OC [XMD8-85] + CS(=O)(=O)N1CCN(Cc2cc3nc(-c4cccc5[nH]ncc45)nc(N4CCOCC4)c3s2)CC1 [Pictilisib] (partner 1 µM)
Summary of the method: as §1

4EGI-1 + Dasatinib = compound: O=C(O)C(Cc1ccccc1[N+](=O)[O-])=NNc1nc(-c2ccc(Cl)c(Cl)c2)cs1 (mixture of isomers) [4EGI-1] + Cc1nc(Nc2ncc(C(=O)Nc3c(C)cccc3Cl)s2)cc(N2CCN(CCO)CC2)n1 [Dasatinib] (partner 0.075 µM)
Summary of the method: as §1

4EGI-1 + Lapatinib = compound: O=C(O)C(Cc1ccccc1[N+](=O)[O-])=NNc1nc(-c2ccc(Cl)c(Cl)c2)cs1 (mixture of isomers) [4EGI-1] + CS(=O)(=O)CCNCc1ccc(-c2ccc3ncnc(Nc4ccc(OCc5cccc(F)c5)c(Cl)c4)c3c2)o1 [Lapatinib] (partner 2 µM)
Summary of the method: as §1

Cell Line	relative viability (XMD8-85 + OSI-027; first compound 0.08 µM)	relative viability (XMD8-85 + OSI-027; first compound 0.8 µM)	relative viability (XMD8-85 + OSI-027; first compound 2.53 µM)	relative viability (XMD8-85 + OSI-027; first compound 8 µM)	relative viability (XMD8-85 + Pictilisib; first compound 0.08 µM)	relative viability (XMD8-85 + Pictilisib; first compound 0.253 µM)	relative viability (XMD8-85 + Pictilisib; first compound 0.8 µM)	relative viability (XMD8-85 + Pictilisib; first compound 2.53 µM)	relative viability (XMD8-85 + Pictilisib; first compound 8 µM)	relative viability (4EGI-1 + Dasatinib; first compound 0.5 µM)	relative viability (4EGI-1 + Dasatinib; first compound 1.581 µM)	relative viability (4EGI-1 + Dasatinib; first compound 5 µM)	relative viability (4EGI-1 + Dasatinib; first compound 15.81 µM)	relative viability (4EGI-1 + Dasatinib; first compound 50 µM)	relative viability (4EGI-1 + Lapatinib; first compound 0.5 µM)	relative viability (4EGI-1 + Lapatinib; first compound 1.581 µM)	relative viability (4EGI-1 + Lapatinib; first compound 5 µM)	relative viability (4EGI-1 + Lapatinib; first compound 15.81 µM)	relative viability (4EGI-1 + Lapatinib; first compound 50 µM)	relative viability (XMD8-85 + OSI-027; first compound 0.253 µM)
NCI-H1563	0.819	0.755	0.715	0.789	0.703	0.652	0.646	0.663	0.62	0.441	0.435	0.441	0.494	0.424	1.11	0.809	0.994	0.393	0.536	
NCI-H1650	0.674	0.599	0.637	0.357	0.508	0.501	0.64	0.539	0.226	0.307		0.364	0.219	0.136	0.953		0.825	0.374	0.256	0.47
NCI-H1651	0.752	0.676	0.647	0.638	0.527	0.454	0.584	0.534	0.44	0.36	0.377	0.44	0.346	0.174	0.993	0.85	0.813	0.665	0.185	0.695
NCI-H1666	0.816	0.893	0.907	0.679	0.522	0.375	0.391	0.312	0.44	0.838	0.717	0.834	0.566	0.374	0.743	0.616	0.653	0.526	0.229	0.876
